# Marks after values point to notes of the source that are not given here.
# Experiments:
# CYP3A4 = target: T1, CYP3A4 (Homo sapiens, UniProt P08684); parameters: method as in PMID 26052884; conditions: 10 µM; cited from earlier work
# T1 construct: purchased Promega, Madison, WI, USA
# [1] = parameters: method as in PMID 30247871; conditions: cited from earlier work
# Na^+ channel (site 2) = tested on: Na^+ channel (site 2); parameters: method as in PMID 26052884; conditions: 100 µM; cited from earlier work
# [2] = tested on: Calcium Cav1.2 channel (verapamil site, antagonist radioligand); parameters: method as in PMID 30247871; conditions: 100 µM; cited from earlier work
# hepatoma HepG2 = tested on: hepatoma HepG2; parameters: method as in PMID 30247871; conditions: 10 µM; cited from earlier work
# [3] = tested on: neuromuscular strength in mice; parameters: method as in PMID 34074008; conditions: single administration 30 mg/kg; cited from earlier work
# [4] = target: T2, TRPV1 (VR1) (antagonist effect) (Homo sapiens, UniProt Q8NER1); assay: TRPV1 antagonist functional assay (intracellular Ca2+, CHO cells); format: cell-based; conditions: CHO; 100 µM; not published before; read-out: % Inhibition of control specific binding (functional, antagonist effect)
# T2 construct: host or cells: CHO cells
# Experimental: (§1) Binding studies were carried out commercially in Eurofins Laboratories (Poitiers, France or New Taipei City, Taiwan).
# [5] = tested on: Glutamate (AMPA, nonselective, antagonist radioligand, [3H] AMPA radioligand); parameters: method as in PMID 30247871; conditions: 100 µM; cited from earlier work
# hERG potassium channel = target: T3, hERG potassium channel (Homo sapiens, UniProt Q12809); assay: Radioligand binding, potassium channel (hERG); conditions: human, human recombinant HEK-293 cells expressing hERG, KA-11 value not published before, read-out: % Inhibition of Control Specific Binding
# T3 construct: host or cells: HEK-293 cells
# Experimental: Dysfunction of both sodium and calcium ion channels is known to be one of the crucial reasons behind the pathogenesis of seizures. Consequently, these ion channels are molecular targets for several clinically important ASDs such as lacosamide, lamotrigine, carbamazepine, oxcarbazepine and compounds currently under preclinical and clinical studies. Thus, for KA-228 and KA-232, we tested herein their binding profile toward the aforementioned ion channels at concentrations of 10 and 100 µM (Table 3). […] Apart from in vitro studies focused on explaining the mechanism of action, KA-232 was additionally tested for its interaction with the potassium channel (hERG) which is recognized as one of the most important ‘off-targets’ responsible for harmful arrhythmogenic activity. Thus, the interaction of potential drug candidates with hERG must be excluded at an early stage of development.
# as §1
# [6] = tested on: Calcium Cav1.2 channels (diltiazem site, antagonist radioligand); parameters: method as in PMID 30247871; conditions: 100 µM; cited from earlier work
# [7] = tested on: PTZ-induced clonic seizures in mice; conditions: i.p., cited from earlier work
# [8] = target: T4, Calcium Cav2.2 channel (antagonist radioligand) (Rattus norvegicus, UniProt Q02294); parameters: method as in PMID 26052884; conditions: 100 µM; cited from earlier work
# T4 construct: rat cerebral cortex; tissue Eurofins Laboratories; host or cells: rat cerebral cortex
# [9] = tested on: seizure susceptibility in mice; parameters: method as in PMID 28412310; conditions: 100 mg/kg; cited from earlier work
# [10] = tested on: tonic–clonic seizures in mice; conditions: i.p.; cited from earlier work
# [11] = tested on: Calcium Cav1.2 channels (dihydropyridine site, antagonist radioligand); parameters: method as in PMID 26052884; conditions: 100 µM; cited from earlier work
# [12] = tested on: Glutamate (NMDA, nonselective, antagonist radioligand, [3H] Ifenprodil radioligand); parameters: method as in PMID 30247871; conditions: 100 µM; cited from earlier work
# [13] = target: GABAA (α1,β2,γ2) (agonist radioligand) (Homo sapiens, UniProt P14867+P47870); parameters: method as in PMID 30247871; conditions: 100 µM; cited from earlier work
# [14] = tested on: motor performance in mice; conditions: i.p.; cited from earlier work
# [15] = tested on: 6-Hz-induced psychomotor seizures in mice; conditions: i.p., cited from earlier work
# [16] = parameters: method as in PMID 26052884; conditions: cited from earlier work
# CYP2D6 = target: T5, CYP2D6 (Homo sapiens, UniProt P10635); parameters: method as in PMID 30247871; conditions: cited from earlier work
# T5 construct: purchased Promega, Madison, WI, USA
# T5 sequence (P10635 whole entry): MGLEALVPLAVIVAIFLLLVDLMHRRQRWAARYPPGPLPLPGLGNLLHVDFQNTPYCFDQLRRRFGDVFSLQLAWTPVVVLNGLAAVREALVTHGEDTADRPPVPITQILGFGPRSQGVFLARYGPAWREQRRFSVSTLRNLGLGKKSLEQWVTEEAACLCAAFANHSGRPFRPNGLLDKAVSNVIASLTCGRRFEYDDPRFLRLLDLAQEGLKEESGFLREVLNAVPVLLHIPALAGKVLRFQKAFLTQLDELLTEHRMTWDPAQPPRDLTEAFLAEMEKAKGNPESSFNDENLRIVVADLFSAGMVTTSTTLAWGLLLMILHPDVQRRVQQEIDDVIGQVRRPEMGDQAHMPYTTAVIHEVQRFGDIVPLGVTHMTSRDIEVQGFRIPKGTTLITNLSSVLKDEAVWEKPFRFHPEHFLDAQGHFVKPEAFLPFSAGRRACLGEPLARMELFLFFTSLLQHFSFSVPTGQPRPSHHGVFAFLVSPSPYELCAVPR
# GABAA (α1,β2,γ2) (agonist radioligand), sequence (P14867 28-456): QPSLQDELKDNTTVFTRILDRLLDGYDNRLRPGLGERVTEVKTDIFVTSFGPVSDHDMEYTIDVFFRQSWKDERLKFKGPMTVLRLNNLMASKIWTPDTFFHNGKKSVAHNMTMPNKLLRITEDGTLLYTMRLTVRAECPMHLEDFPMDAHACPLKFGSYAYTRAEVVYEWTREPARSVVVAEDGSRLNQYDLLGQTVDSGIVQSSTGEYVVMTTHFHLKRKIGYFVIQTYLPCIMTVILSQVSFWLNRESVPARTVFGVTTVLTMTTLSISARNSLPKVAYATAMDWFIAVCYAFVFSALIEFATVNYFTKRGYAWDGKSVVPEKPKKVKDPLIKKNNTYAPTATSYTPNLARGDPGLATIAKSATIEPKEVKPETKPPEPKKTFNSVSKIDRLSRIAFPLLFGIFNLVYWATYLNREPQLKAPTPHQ
# GABAA (α1,β2,γ2) (agonist radioligand), sequence (P47870 25-512 limits assumed): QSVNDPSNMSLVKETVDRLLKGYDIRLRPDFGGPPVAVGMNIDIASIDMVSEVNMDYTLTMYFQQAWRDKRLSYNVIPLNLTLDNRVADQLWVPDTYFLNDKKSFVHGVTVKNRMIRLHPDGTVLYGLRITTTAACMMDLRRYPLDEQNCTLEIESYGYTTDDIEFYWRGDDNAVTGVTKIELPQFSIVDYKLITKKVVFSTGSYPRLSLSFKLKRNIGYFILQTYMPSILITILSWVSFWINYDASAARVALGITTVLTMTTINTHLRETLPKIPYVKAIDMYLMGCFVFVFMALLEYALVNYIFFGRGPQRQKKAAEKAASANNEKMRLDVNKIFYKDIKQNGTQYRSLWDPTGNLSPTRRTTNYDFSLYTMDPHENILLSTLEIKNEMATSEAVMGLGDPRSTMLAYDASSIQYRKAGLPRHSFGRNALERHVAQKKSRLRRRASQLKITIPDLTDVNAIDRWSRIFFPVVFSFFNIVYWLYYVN
# GABAA (α1,β2,γ2) (agonist radioligand), sequence (P18507 40-475 partner): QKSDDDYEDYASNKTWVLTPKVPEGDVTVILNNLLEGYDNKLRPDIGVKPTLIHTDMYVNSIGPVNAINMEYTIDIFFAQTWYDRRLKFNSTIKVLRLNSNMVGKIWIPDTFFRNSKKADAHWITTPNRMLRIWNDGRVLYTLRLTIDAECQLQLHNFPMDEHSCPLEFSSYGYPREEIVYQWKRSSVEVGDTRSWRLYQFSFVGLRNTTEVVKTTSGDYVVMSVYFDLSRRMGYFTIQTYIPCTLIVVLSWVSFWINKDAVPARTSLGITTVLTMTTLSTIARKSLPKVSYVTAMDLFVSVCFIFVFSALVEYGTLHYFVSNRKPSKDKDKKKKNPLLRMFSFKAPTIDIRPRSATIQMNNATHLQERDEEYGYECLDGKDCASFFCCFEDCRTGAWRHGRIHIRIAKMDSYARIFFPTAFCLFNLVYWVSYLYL
# T3 sequence (Q12809 whole entry): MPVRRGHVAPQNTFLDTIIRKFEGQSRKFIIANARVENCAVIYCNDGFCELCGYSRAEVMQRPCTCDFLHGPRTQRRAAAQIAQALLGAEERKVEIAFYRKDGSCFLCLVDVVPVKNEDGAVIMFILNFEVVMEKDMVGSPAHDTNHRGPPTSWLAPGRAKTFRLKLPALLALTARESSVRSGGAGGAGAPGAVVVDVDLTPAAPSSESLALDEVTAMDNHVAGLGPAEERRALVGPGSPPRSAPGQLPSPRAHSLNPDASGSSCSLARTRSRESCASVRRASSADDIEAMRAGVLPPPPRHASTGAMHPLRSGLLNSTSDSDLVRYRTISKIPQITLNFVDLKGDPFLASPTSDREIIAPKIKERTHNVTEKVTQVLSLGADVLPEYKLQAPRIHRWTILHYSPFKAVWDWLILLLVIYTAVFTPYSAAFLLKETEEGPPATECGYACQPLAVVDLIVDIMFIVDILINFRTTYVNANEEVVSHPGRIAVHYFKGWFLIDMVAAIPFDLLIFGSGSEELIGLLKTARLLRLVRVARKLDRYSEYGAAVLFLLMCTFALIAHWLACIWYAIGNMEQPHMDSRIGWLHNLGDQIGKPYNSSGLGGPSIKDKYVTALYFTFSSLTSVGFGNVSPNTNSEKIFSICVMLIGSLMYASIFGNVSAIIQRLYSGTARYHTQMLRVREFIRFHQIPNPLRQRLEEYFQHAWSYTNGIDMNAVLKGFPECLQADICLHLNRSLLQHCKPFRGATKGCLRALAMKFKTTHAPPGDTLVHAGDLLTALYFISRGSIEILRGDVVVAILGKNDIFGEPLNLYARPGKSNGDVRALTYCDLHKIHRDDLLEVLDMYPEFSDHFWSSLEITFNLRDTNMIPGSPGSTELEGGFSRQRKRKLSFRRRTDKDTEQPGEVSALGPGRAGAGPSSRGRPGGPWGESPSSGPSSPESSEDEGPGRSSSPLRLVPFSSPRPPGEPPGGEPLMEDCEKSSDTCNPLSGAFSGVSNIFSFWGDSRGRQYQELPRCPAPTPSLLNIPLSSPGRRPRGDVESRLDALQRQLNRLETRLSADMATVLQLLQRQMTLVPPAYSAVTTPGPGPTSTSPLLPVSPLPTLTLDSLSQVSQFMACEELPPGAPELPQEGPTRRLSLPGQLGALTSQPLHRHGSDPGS
# T1 sequence (P08684 whole entry): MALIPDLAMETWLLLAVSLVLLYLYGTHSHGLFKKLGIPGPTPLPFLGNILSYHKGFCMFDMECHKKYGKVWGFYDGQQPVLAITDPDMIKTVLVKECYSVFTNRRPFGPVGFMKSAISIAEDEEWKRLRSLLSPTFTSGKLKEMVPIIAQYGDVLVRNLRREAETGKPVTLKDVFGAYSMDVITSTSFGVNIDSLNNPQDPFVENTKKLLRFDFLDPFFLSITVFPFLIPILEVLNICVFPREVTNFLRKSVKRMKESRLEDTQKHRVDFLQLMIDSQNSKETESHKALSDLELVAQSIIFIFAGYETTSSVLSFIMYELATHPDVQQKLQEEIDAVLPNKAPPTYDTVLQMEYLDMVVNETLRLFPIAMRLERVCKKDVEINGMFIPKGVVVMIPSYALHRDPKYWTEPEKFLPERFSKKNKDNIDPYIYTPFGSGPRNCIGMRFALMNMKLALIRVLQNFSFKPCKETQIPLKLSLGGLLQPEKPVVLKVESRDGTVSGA
# T2 sequence (Q8NER1 whole entry): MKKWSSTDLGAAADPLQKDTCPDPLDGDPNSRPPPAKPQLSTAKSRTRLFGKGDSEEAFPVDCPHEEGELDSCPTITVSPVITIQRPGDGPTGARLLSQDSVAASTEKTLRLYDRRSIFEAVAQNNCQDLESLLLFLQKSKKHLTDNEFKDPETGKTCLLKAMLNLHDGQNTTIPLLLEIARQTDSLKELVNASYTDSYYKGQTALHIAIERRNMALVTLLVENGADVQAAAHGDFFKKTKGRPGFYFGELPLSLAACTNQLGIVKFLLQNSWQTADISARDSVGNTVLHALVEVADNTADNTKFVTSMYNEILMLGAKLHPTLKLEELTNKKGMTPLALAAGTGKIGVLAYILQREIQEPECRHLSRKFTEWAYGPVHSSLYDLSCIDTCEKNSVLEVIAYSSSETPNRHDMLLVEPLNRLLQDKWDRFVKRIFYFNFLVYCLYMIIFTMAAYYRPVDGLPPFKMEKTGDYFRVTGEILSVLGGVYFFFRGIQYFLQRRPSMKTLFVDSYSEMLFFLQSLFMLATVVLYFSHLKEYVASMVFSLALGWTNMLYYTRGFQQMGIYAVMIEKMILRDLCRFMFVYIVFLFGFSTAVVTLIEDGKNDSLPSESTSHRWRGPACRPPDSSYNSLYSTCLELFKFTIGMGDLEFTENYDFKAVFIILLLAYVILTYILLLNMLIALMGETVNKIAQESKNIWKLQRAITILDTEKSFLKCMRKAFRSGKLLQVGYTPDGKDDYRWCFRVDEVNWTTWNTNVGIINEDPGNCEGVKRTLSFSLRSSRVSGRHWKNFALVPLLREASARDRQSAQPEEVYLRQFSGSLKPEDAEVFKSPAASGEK
compound,measurement,setting,value
CC(C(=O)N1CCN(c2cccc(C(F)(F)F)c2)CC1)N1C(=O)CCC1=O (stereo not shown) [KA-11],CYP3A4 activity (% of control ± SD),CYP3A4,99.21 ± 4.9 [6] % of control
same,PAMPA Pe ± SD,[1],27.1 ± 3.8 ^b [9] 10^−6 cm/s
same,% Inhibition of Control Specific Binding,Na^+ channel (site 2),37.4 (100) * %
same,% Inhibition of Control Specific Binding,[2],1.5 (100) ^# %
same,HepG2 viability (% of control ± SD),hepatoma HepG2,99.78 ± 2.18 [9] % of control
same,effect on muscle strength,[3],no statistically significant abnormalities
same,inhibition at 100 µM,[4],33%
same,% Inhibition of Control Specific Binding,[5],−2.9 (100) ^# %
same,"inhibition at 60 min, 100 µM",hERG potassium channel,15%
same,% Inhibition of Control Specific Binding,[6],44.9 (100) ^# %
same,ED50 PTZ ± SD,[7]; scPTZ,59.9 ± 19.55 mg/kg
same,"TI (TD50/ED50), PTZ",[7],> 25.04
same,% Inhibition of Control Specific Binding,[8],13.9 (100) * %
same,"effect on thresholds for all studied endpoints (myoclonic twitch, generalized clonus, forelimb tonus)",[9],significant increase
same,ED50 MES ± SD,[10],88.4 ± 34.16 mg/kg
same,"TI (TD50/ED50), MES",[10],> 16.97
same,% Inhibition of Control Specific Binding,[11],64.2 (100) * %
same,% Inhibition of Control Specific Binding,[12],13.0 (100) ^# %
same,% Inhibition of Control Specific Binding,[13],−28.1 (100) ^# %
same,TD50,[14],>1500 mg/kg
same,ED50 6 Hz ± SD,[15]; 32 mA,21.0 ± 32.19 mg/kg
same,"TI (TD50/ED50), 6 Hz",[15],> 71.43
same,Metabolic stability (% remaining after incubation with HLMs),[16],73.49 [6] %
same,CYP2D6 activity (% of control ± SD),CYP2D6; 10 µM,122.30 ± 2.02 [9] % of control
same,effect on CYP2D6 activity,CYP2D6; at 1 and 10 µM,slight induction

# Source: article PMC10179080, “In Vivo and In Vitro Characterization of Close Analogs of Compound KA-11, a New Antiseizure Drug Candidate” (International Journal of Molecular Sciences, 2023)
